From US11324750B2, “Compositions and methods for the treatment of severe acute respiratory syndrome coronavirus 2 (SARS-CoV-2) infection” (Children's Hospital Medical Center, priority 2020, dated 2022)
Entries after “also recorded” stand apart in the source; their conditions may differ.

Experiments:
[1] = tested on: SARS-CoV-2-specific IgM and IgG; test: SARS-CoV-2-specific IgM and IgG detection (CLIA); type: in vivo, human; conditions: vs control group
Source text: SARS-CoV-2-specific IgM and IgG detection. The SARS-CoV-2-specific IgM and IgG were detected by paramagnetic particle chemiluminescent immunoassay (CLIA) using iFlash-SARS-CoV-2 IgM/IgG assay kit (SHENZHEN YHLO BIOTECH CO., LTD.) and iFlash Immunoassay Analyzer (SHENZHEN YHLO BIOTECH CO., LTD.)
Procedures. The first day of randomization was designated as D0. The second and the fourth day after randomization were designated D1 and D3, respectively. Dx referred to the day when either disease progressed according to the Chinese management guideline for COVID-19 (version 5.0) or defined as a one-category increase on the seven-category scale. Dend was the day before discharge. The enrolled patients were randomly separated into two groups: the treatment group (group B) received oral intake of ruxolitinib (Jakafi®, Novartis Pharma Stein AG, Switzerland) 5 mg twice a day plus standard-of-care (SoC); the control group (group A) is treated with placebo twice a day with SoC. […] Safety was monitored daily by two independent senior physicians from the trial center. […] The CT features of improvement were evaluated by two independent senior radiologists blindly, which should at least meet one of the following criteria: decreased presence of ground-glass opacities (GGO), decreased lung opacification, reduced density of consolidation or decreased pleural effusion with existence of fibrous stripes^29. […]

severe COVID-19 patients = test: Randomized controlled trial, clinical outcomes (seven-category ordinal scale, chest CT, mortality, lymphocyte recovery, supportive treatments); type: in vivo, human; conditions: for CT scan follow-up within 14 days: Improvement, %: P 0.07 vs control
Source text: As of the effective date of this application, no therapeutics have yet been proven effective for the treatment of severe COVID-19 with cytokine storm. Ruxolitinib, a potent and selective oral inhibitor of Janus kinase (JAK) 1 and JAK2, was proposed by Applicant to be beneficial in the treatment of cytokine storm. Applicant conducted a prospective, multicenter, single-blind, randomized controlled trial involving participants diagnosed as severe COVID-19 patients. The enrolled patients were randomly separated into two groups with a 1:1 allocation by an independent statistician in blocks of 4 for all 3 sites. Study number and treatment allocation codes were provided in sequentially numbered opaque envelops. Intervention group is treated with ongoing oral intake 5 mg of ruxolitinib (Jakafi®, Novartis Pharma Stein AG, Switzerland) twice a day based on the standard-of-care (SoC); the control group is treated with placebo plus SoC. The primary endpoint was the incidence of serious adverse events occurring up to 28 days and the time to clinical improvement. The secondary endpoint is the overall mortality at D28. This trial is registered at www.chictr.org.cn as ChiCTR-OPN-2000029580.
A prospective, single-blind, randomized controlled trial was designed. Participants diagnosed as positive for COVID-19 were enrolled for screening in three hospitals including Tongji hospital and No. 1 hospital in Wuhan and the Third Xiangya hospital in Changsha, China. The original protocol included secondary randomization in a treatment group for infusion of mesenchymal stem cells if the patient's clinical response had deteriorated within seven days after first randomization. Because no deterioration had occurred in patients of the treatment group within seven days after first randomization and secondary randomization was unnecessary, the protocol was updated correspondingly. This study was approved by the Medical ethics committee of Tongji Hospital, Tongji Medical College, Huazhong University of Science and Technology, Wuhan, China, registered at www.chictr.org.cn as ChiCTR-OPN-2000029580.
Participants. All participants were required to meet the following inclusion criteria: (1) enrolled patients met the diagnostic criterial for COVID-19. The diagnosis and the illness severity of COVID-19 were defined according to the Chinese management guideline for COVID-19 (version 5.0)^28; (2) patients were eligible if they were 18 years or older and younger than 75 years. (3) only severe cases were enrolled. Exclusion criterial included: (1) patients with other malignant tumors in the course of treatment; (2) patients with severe cardiovascular and metabolic disease in unstable status, even if treated with drugs; (3) patients with mental or severe psychiatric disorder who are unable to understand or abide the study protocols; (4) patients needing orotracheal intubation or invasive ventilation; (5) patients who cannot guarantee to complete the scheduled treatment plan and follow-up; (6) women of child-bearing age having positive pregnancy test or still lactating; (7) patients having other active infections; (8) patients having any conditions deemed to potentially affect the safety of the study protocols. Written informed consent was obtained from all patients or the patients' legal representative if the patient was too unwell to provide the consent.
Randomization and masking. The enrolled patients were then randomly allocated into two groups with a 1:1 allocation ratio by an independent statistician using permuted blocks of 4 for all 3 sites. Patient unique identification number and treatment allocation codes were provided in sequentially numbered opaque envelops. Treating physicians were aware of group allocations while the enrolled participants, staff at trial sites, CT radiologists and laboratory personnel were masked to the trial group assignment.
Procedures. The first day of randomization was designated as D0. […]

48 cytokines in serum = test: Serum cytokines, Bio-Plex Pro Human Cytokines 48-Plex Screening assay; conditions: in vivo

N#CC[C@H](C1CCCC1)n1cc(-c2ncnc3[nH]ccc23)cn1 [Ruxolitinib, (3R)-3-cyclopentyl-3-[4-(7H-pyrrolo[2,3-d]pyrimidin-4-yl)pyrazol-1-yl]propanenitrile]
Peak IgG against SARS-CoV-2 [1]: no significant difference | Peak level of anti-IgM of SARS-CoV-2 ([1]; P=0.039): profoundly higher | CT scan follow-up within 14 days: Progression, % (severe COVID-19 patients; chest CT, N = 20): (5.0%) | CT scan follow-up within 14 days: Stable, % (severe COVID-19 patients; chest CT, N = 20): (5.0%) | CT scan follow-up within 14 days: Improvement, % (severe COVID-19 patients; chest CT, N = 20): (90.0%) | CT scan follow-up within 14 days: Improvement, % (severe COVID-19 patients; chest CT, N = 20, listed as ruxolitinib): 90% | Time from randomization to death (severe COVID-19 patients; median (IQR)): 0 days | Time from randomization to discharge (severe COVID-19 patients; median (IQR), P 0.94 vs control): 17 days | Time to lymphocyte recovery (severe COVID-19 patients; median (IQR), patients with lymphopenia, log-rank P 0.03 vs control): 5 days | Time to clinical improvement (severe COVID-19 patients; median (IQR), primary efficacy endpoint, log-rank P 0.15 vs control): 12 days | Clinical improvement Day 28, % (severe COVID-19 patients; seven-category ordinal scale, N = 20, P 0.23 vs control): (100.0%) | Clinical improvement Day 14, % (severe COVID-19 patients; seven-category ordinal scale, N = 20, P 0.35 vs control): (60.0%) | Clinical improvement Day 7, % (severe COVID-19 patients; seven-category ordinal scale, N = 20, P 0.41 vs control): (20.0%) | Clinical improvement Day 21, % (severe COVID-19 patients; seven-category ordinal scale, N = 20, P 1.00 vs control): (90.0%) | Average fold-change of 48 cytokines (48 cytokines in serum): 0.466 | Average values of 48 cytokines (48 cytokines in serum): decreased significantly; also recorded: all average values of 48 cytokines decreased | Level of MIP-1α (48 cytokines in serum): markedly decreased | Level of interleukin-6 (IL-6) (48 cytokines in serum): markedly decreased | Level of interleukin-12 (IL-12) (p40) (48 cytokines in serum): markedly decreased | Level of macrophage inflammatory protein 1β (MIP-1β) (48 cytokines in serum): markedly decreased | Level of macrophage migration inhibitory factor (MIF) (48 cytokines in serum): markedly decreased | Level of nerve growth factor β (NGF-β) (48 cytokines in serum): markedly decreased | Level of vascular endothelial growth factor (VEGF) (48 cytokines in serum): markedly decreased
